The results in this text go back to US20120088663A1, “Triazole Compounds Carrying a Sulfur Substituent” (BASF SE, priority 2009, published 2012).

The nature of data set [1]: Log P, partition coefficient between water and octanol. It counts as physicochemical. The text has this:
Log P is the partition coefficient between water and octanol.

With `CC1COC(Cn2cncn2)(c2ccc(Oc3ccc(Cl)cc3F)cc2)O1` (stereo not drawn) [Example 3, 1-{2-[4-(4-Chloro-2-fluoro-phenoxy)-phenyl]-4-methyl-[1,3]dioxolan-2-ylmethyl}-1H-[1,2,4]triazole], the melting point (commonly the temperature, or range, at which the solid turns liquid) was 113 to 115 °C.
Turning to `CC1COC(Cn2cncn2)(c2cc(F)c(Oc3ccccc3)cc2F)O1` (stereo not drawn) [Example 40, 1-{2-[3,6-Difluoro-4-phenoxy-phenyl]-4-methyl-[1,3]dioxolan-2-ylmethyl}-1H-[1,2,4]triazole], the melting point lay in the range of 102 to 104 °C.
With `CC1COC(Cn2cncn2)(c2ccc(Oc3c(F)cccc3Cl)cc2)O1` (stereo not drawn) [Example 6, 1-{2-[4-(6-Chloro-2-fluoro-phenoxy)-phenyl]-4-methyl-[1,3]dioxolan-2-ylmethyl}-1H-[1,2,4]triazole], the melting point lay within 112 to 114 °C.
In the case of `CC1COC(Cn2ncnc2S)(c2cc(F)c(Oc3ccccc3)cc2F)O1` (stereo not drawn) [Example 64, 2-{2-[2,5-Difluoro-4-phenoxy-phenyl]-4-methyl-[1,3]dioxolan-2-yl-methyl}-2H-[1,2,4]triazole-3-thiol], the lipophilicity (logP) (commonly a log measure of how a compound divides between an organic and an aqueous phase) in data set [1] is 2.9.
Take `CCC1COC(Cn2cncn2)(c2ccc(Oc3ccc(Cl)cc3)cc2Cl)O1` (stereo not drawn) [Example 38, 1-{2-[2-Chloro-4-(4-chloro-phenoxy)-phenyl]-4-ethyl-[1,3]dioxolan-2-ylmethyl}-1H-[1,2,4]triazole]: the lipophilicity (logP) in data set [1] was determined as 5.
The molecule `CC1COC(Cn2cncn2)(c2cc(F)c(Oc3ccc(Cl)cc3)cc2F)O1` (stereo not drawn) [Example 37, 1-{2-[4-(4-Chloro-phenoxy)-2,5-difluoro-phenyl]-4-methyl-[1,3]dioxolan-2-ylmethyl}-1H-[1,2,4]triazole] displayed a melting point of 86 to 88 °C.
As for `CC1COC(Cn2ncnc2S)(c2cc(F)c(Oc3ccc(Cl)cc3)cc2F)O1` (stereo not drawn) [Example 63, 2-{2-[4-(4-Chloro-phenoxy)-2,5-difluoro-phenyl]-4-methyl-[1,3]dioxolan-2-ylmethyl}-2H-[1,2,4]triazole-3-thiol], in data set [1], the log partition coefficient (logP) was found to be 3.2.
As to `CC1COC(Cn2cncn2)(c2ccc(Oc3cc(F)ccc3F)cc2Cl)O1` (stereo not drawn) [Example 26, 1-{2-[2-Chloro-4-(2,5-difluoro-phenoxy)-phenyl]-4-methyl-[1,3]dioxolan-2-ylmethyl}-1H-[1,2,4]triazole], the melting point amounted to 119.9 °C.
For the molecule `CC1COC(Cn2cncn2)(c2ccc(Oc3ccccc3)c(F)c2)O1` (stereo not drawn) [Example 35, 1-{2-[3-Fluoro-4-phenoxy-phenyl]-4-methyl-[1,3]dioxolan-2-ylmethyl}-1H-[1,2,4]triazole], the melting point was 108 to 110 °C.
On the same count and under the same terms, the same measure for `CCC1COC(Cn2cncn2)(c2ccc(Oc3c(F)cccc3F)cc2)O1` (stereo not drawn) [Example 9, 1-{2-[4-(2,6-Difluoro-phenoxy)-phenyl]-4-ethyl-[1,3]dioxolan-2-ylmethyl}-1H-[1,2,4]triazole]: 90 to 95 °C; for `CC1COC(Cn2cncn2)(c2ccc(Oc3ccc(F)cc3F)cc2)O1` (stereo not drawn) [Example 4, 1-{2-[4-(2,4-Difluoro-phenoxy)-phenyl]-4-methyl-[1,3]dioxolan-2-ylmethyl}-1H-[1,2,4]triazole]: 83 to 86 °C.
`CCCC1COC(Cn2ncnc2S)(c2ccc(Oc3ccc(Cl)cc3)cc2Cl)O1` (stereo not drawn) [Example 65, 2-{2-[2-Chloro-4-(4-chloro-phenoxy)-phenyl]-4-propyl-[1,3]dioxolan-2-yl-methyl}-2H-[1,2,4]triazole-3-thiol] displayed a melting point of 105 to 106 °C.
For the molecule `CCCC1COC(Cn2cncn2)(c2ccc(Oc3ccc(Cl)cc3)cc2Cl)O1` (stereo not drawn) [Example 39, 1-{2-[2-Chloro-4-(4-chloro-phenoxy)-phenyl]-4-propyl-[1,3]dioxolan-2-ylmethyl}-1H-[1,2,4]triazole], in data set [1], the lipophilicity (logP) came out at 5.4.
Molecule `CCC1COC(Cn2cncn2)(c2ccc(Oc3ccc(F)cc3F)cc2)O1` (stereo not drawn) [Example 5, 1-{2-[4-(2,4-Difluoro-phenoxy)-phenyl]-4-ethyl-[1,3]dioxolan-2-ylmethyl}-1H-[1,2,4]triazole] returned a melting point of 112 to 114 °C.
The molecule `CC1COC(Cn2ncnc2S)(c2cc(F)c(Oc3ccccc3)c(F)c2)O1` (stereo not drawn) [Example 68, 2-{2-[3,5-Difluoro-4-phenoxy-phenyl]-4-methyl-[1,3]dioxolan-2-yl-methyl}-2H-[1,2,4]triazole-3-thiol] registered a melting point of 139 to 141 °C.
As for `CC1COC(Cn2cncn2)(c2ccc(Oc3ccc(Cl)cc3)c(F)c2)O1` (stereo not drawn) [Example 32, 1-{2-[4-(4-Chloro-phenoxy)-3-fluoro-phenyl]-4-methyl-[1,3]dioxolan-2-ylmethyl}-1H-[1,2,4]triazole], the lipophilicity (logP) in data set [1] was 4.2.
As for `CC1COC(Cn2ncnc2S)(c2ccc(Oc3ccc(Cl)cc3)c(F)c2)O1` (stereo not drawn) [Example 69, 2-{2-[4-(4-Chloro-phenoxy)-3-fluoro-phenyl]-4-methyl-[1,3]dioxolan-2-yl-methyl}-2H-[1,2,4]triazole-3-thiol], the logP in data set [1] turned out to be 3.6.
`CC1COC(Cn2cncn2)(c2cc(F)c(Oc3ccccc3)c(F)c2)O1` (stereo not drawn) [Example 41, 1-{2-[3,5-Difluoro-4-phenoxy-phenyl]-4-methyl-[1,3]dioxolan-2-ylmethyl}-1H-[1,2,4]triazole]: the logP in data set [1] came to 3.7.
In the case of `CC1COC(Cn2ncnc2S)(c2ccc(Oc3ccccc3)c(F)c2)O1` (stereo not drawn) [Example 67, 2-{2-[3-Fluoro-4-phenoxy-phenyl]-4-methyl-[1,3]dioxolan-2-yl-methyl}-2H-[1,2,4]triazole-3-thiol], the melting point lay in the range of 62 to 64 °C.
In turn, `CC1COC(Cn2ncnc2S)(c2ccc(Oc3ccc(Cl)cc3)cc2F)O1` (stereo not drawn) [Example 70, 2-{2-[4-(4-Chloro-phenoxy)-2-fluoro-phenyl]-4-methyl-[1,3]dioxolan-2-yl-methyl}-2H-[1,2,4]triazole-3-thiol] showed a logP in data set [1] of 3.5.
`COCC1COC(Cn2ncnc2S)(c2ccc(Oc3ccc(Cl)cc3)cc2Cl)O1` (stereo not drawn) [Example 66, 2-{2-[2-Chloro-4-(4-chloro-phenoxy)-phenyl]-4-methoxymethyl-[1,3]dioxolan-2-ylmethyl}-2H-[1,2,4]triazole-3-thiol] gave a melting point of 153 to 155 °C.
